Test results from patent US20260062422A1 (Halda Therapeutics OpCo, Inc., priority 2022, published 2026).

The compounds below were run on T47D cells (assay: Cellular growth inhibition assay for T47D cells, CellTiter-Glo). Details: 72 hours treatment, CellTiter-Glo 2.0 cell viability.
Type: cell-based, human
Experimental: T47D cells were purchased from American Type Cell Culture (ATCC Cat #HTB-133) and then seeded on poly-D-lysine coated, black clear-bottom 384-well plates at 3000/well in 25 μL Dulbecco's Modified Eagle Medium (DMEM) supplemented with 10% w/w Fetal bovine serum (FBS), 0.2 units/mL recombinant human insulin (Gibco Cat #12585014), and 1% w/w Pen-Strep. Pen-Strep is a commercially available mixture of penicillin G and streptomycin, which is used in mammalian cell culture media to prevent bacterial contamination. Dulbecco's Modified Eagle Medium (DMEM) supplemented with 10% w/w fetal bovine serum (FBS), 0.2 units/mL recombinant human insulin, and 1% w/w Pen-Strep is herein referred to as Treatment Medium. Following seeding of cells in the plates, the plates were spun at 300×g for 30 seconds, then equilibrated to room temperature for 30 minutes, and then deposited in a humidified tissue culture incubator maintained at 37° C. with 5% CO2.
At 24 hours after seeding of the cells, dilutions of test compound were prepared in DMSO and dissolved in Treatment Medium, to achieve a final DMSO concentration of 0.5% w/w, thereby providing the Test Compound Solution. A 25 μL aliquot of the Test Compound Solution was added to cells in the well plates. An equal volume of a solution containing DMSO and Treatment Medium was used as a negative control. Following treatment of cells with Test Compound Solution or said equal volume of a solution containing DMSO and Treatment Medium, the plates were spun at 300×g for 30 seconds, and then left in an incubator for 72 hours.
At the end of the treatment duration, cell viability was quantified with CellTiter-Glo 2.0 reagent (Promega Cat #G9243). For this purpose, plates were equilibrated to room temperature for 30 minutes, and then 25 μL of CellTiter-Glo 2.0 reagent was added to cells in the plate wells. Plates were then agitated on a shaker for two minutes at 500 rpm and subsequently incubated at room temperature for 10 minutes. Following incubation, the plates were spun at 3000×g for 30 seconds, then sealed with an optical adhesive cover, and luminescence readings were measured with an EnVision Plate Reader (Perkin Elmer).
Data was normalized using zero luminescence for baseline. A four-parameter non-linear regression curve fit was applied to dose-response data in GraphPad Prism data analysis software to determine the half-maximal growth inhibitory concentration (GI50) for each test compound.
Compound Cc1sc2c(c1C)C(c1ccc(C#CC3CCC(Cc4ncc(C(=O)N[C@H]5C(C)(C)[C@H](Oc6ccc(C#N)c(Cl)c6)C5(C)C)cn4)CC3)cc1)=N[C@@H](Cc1ncco1)c1nnc(C)n1-2 (stereo partly drawn) [Compound I-505] has a GI50 greater than 3 µM. With Cc1sc2c(c1C)C(c1ccc(C3CC(CC4CCN(c5ncc(C(=O)N[C@H]6C(C)(C)[C@H](Oc7ccc(C#N)c(Cl)c7)C6(C)C)cn5)CC4)C3)cc1)=NC(C)c1nnc(C)n1-2 (stereo partly drawn) [Compound I-508] the GI50 was 0.5 to 1.5 µM. With Cc1sc2c(c1C)C(c1ccc(N3CC(C4CCCC(Cc5ncc(C(=O)N[C@H]6C(C)(C)[C@H](Oc7ccc(C#N)c(Cl)c7)C6(C)C)cn5)C4)C3)cc1)=N[C@@H](Cc1ncco1)c1nnc(C)n1-2 (stereo partly drawn) [Compound I-582] the GI50 was less than 0.5 µM. Work on Cc1sc2c(c1C)C(c1ccc([C@H]3C[C@@H]3CC3CCCN(c4ncc(C(=O)N[C@H]5C(C)(C)[C@H](Oc6ccc(C#N)c(Cl)c6)C5(C)C)cn4)C3)cc1)=NC(Cc1ncco1)c1nnc(C)n1-2 (stereo partly drawn) [Compound I-494] yielded a GI50 of less than 0.5 µM. In the case of Cc1sc2c(c1C)C(c1ccc(N3CC(C4CCCC(Cc5ncc(C(=O)N[C@H]6C(C)(C)[C@H](Oc7ccc(C#N)c(Cl)c7)C6(C)C)cn5)C4)C3)cc1)=N[C@@H](Cc1ncco1)c1nnc(C)n1-2 (stereo partly drawn) [Compound I-580], the GI50 is reported as less than 0.5 µM. Cc1sc2c(c1C)C(c1ccc(N3CC(C4CCC(Cc5ncc(C(=O)N[C@H]6C(C)(C)[C@H](Oc7ccc(C#N)c(Cl)c7)C6(C)C)cn5)CC4)C3)cc1)=N[C@@H](Cc1ncco1)c1nnc(C)n1-2 (stereo partly drawn) [Compound I-544] showed a GI50 of 0.5 to 1.5 µM. For Cc1sc2c(c1C)C(c1ccc(C3CC(CC4CCN(c5ncc(C(=O)N[C@H]6C(C)(C)[C@H](Oc7ccc(C#N)c(Cl)c7)C6(C)C)cn5)CC4)C3)cc1)=NC(C)c1nnc(C)n1-2 (stereo partly drawn) [Compound I-510], the GI50 was greater than 3 µM. Cc1sc2c(c1C)C(c1ccc(CC3CC(CC4CCN(c5ncc(C(=O)N[C@H]6C(C)(C)[C@H](Oc7ccc(C#N)c(Cl)c7)C6(C)C)cn5)CC4)C3)cc1)=N[C@@H](C)c1nnc(C)n1-2 (stereo partly drawn) [Compound I-513] was tested, and the GI50 was less than 0.5 µM. Compound Cc1sc2c(c1C)C(c1ccc(CC3CC(C4CCCN(c5ncc(C(=O)N[C@H]6C(C)(C)[C@H](Oc7ccc(C#N)c(Cl)c7)C6(C)C)cn5)C4)C3)cc1)=N[C@@H](C)c1nnc(C)n1-2 (stereo partly drawn) [Compound I-489] has a GI50 of less than 0.5 µM. For Cc1sc2c(c1C)C(c1ccc([C@H]3C[C@@H]3CC3CCCN(c4ncc(C(=O)N[C@H]5C(C)(C)[C@H](Oc6ccc(C#N)c(Cl)c6)C5(C)C)cn4)C3)cc1)=NC(Cc1ncco1)c1nnc(C)n1-2 (stereo partly drawn) [Compound I-496], the GI50 was less than 0.5 µM. For Cc1sc2c(c1C)C(c1ccc([C@H]3C[C@@H]3CC3CCCN(c4ncc(C(=O)N[C@H]5C(C)(C)[C@H](Oc6ccc(C#N)c(Cl)c6)C5(C)C)cn4)C3)cc1)=N[C@@H](Cc1ncco1)c1nnc(C)n1-2 (stereo partly drawn) [Compound I-492], the GI50 was greater than 3 µM. Cc1sc2c(c1C)C(c1ccc(C3CC3C3CC4(CCN(c5ncc(C(=O)N[C@H]6C(C)(C)[C@H](Oc7ccc(C#N)c(Cl)c7)C6(C)C)cn5)CC4)C3)cc1)=N[C@@H](C)c1nnc(C)n1-2 (stereo partly drawn) [Compound I-556] showed a GI50 greater than 3 µM.

Same assay, conditions: Homo sapiens, T47D, 72 h, 72 hours treatment, CellTiter-Glo 2.0 cell viability
With Cc1sc2c(c1C)C(c1ccc(N3CC4(CC(Cc5ncc(C(=O)N[C@H]6C(C)(C)[C@H](Oc7ccc(C#N)c(Cl)c7)C6(C)C)cn5)C4)C3)cc1)=N[C@@H](Cc1ncco1)c1nnc(C)n1-2 [Compound I-498] the GI50 was 0.5 to 1.5 µM. In the case of Cc1sc2c(c1C)C(c1ccc(N3CC(CC4CCN(c5ccc(C(=O)N[C@H]6C(C)(C)[C@H](Oc7ccc(C#N)c(Cl)c7)C6(C)C)cn5)CC4)C3)cc1)=NC1(CC1)c1nnc(C)n1-2 [Compound I-523], the GI50 is reported as 1.5 to 3 µM. Cc1sc2c(c1C)C(c1ccc(N3CC4(C3)CN(c3ncc(C(=O)N[C@H]5C(C)(C)[C@H](Oc6ccc(C#N)c(Cl)c6)C5(C)C)cn3)C4)cc1)=N[C@@H](C)c1nnc(C)n1-2 [Compound I-516] showed a GI50 of 1.5 to 3 µM. Work on Cc1sc2c(c1C)C(c1ccc(N3CC(C4CCCC(Cc5ncc(C(=O)N[C@H]6C(C)(C)[C@H](Oc7ccc(C#N)c(Cl)c7)C6(C)C)cn5)C4)C3)cc1)=N[C@@H](Cc1ncco1)c1nnc(C)n1-2 (stereo partly drawn) [Compound I-579] yielded a GI50 of less than 0.5 µM. Work on Cc1sc2c(c1C)C(c1ccc(CC3CC(C4CCCN(c5ncc(C(=O)N[C@H]6C(C)(C)[C@H](Oc7ccc(C#N)c(Cl)c7)C6(C)C)cn5)C4)C3)cc1)=N[C@@H](C)c1nnc(C)n1-2 (stereo partly drawn) [Compound I-488] yielded a GI50 of less than 0.5 µM. With Cc1sc2c(c1C)C(c1ccc(OC3(C)CC4(CCN(c5ncc(C(=O)N[C@H]6C(C)(C)[C@H](Oc7ccc(C#N)c(Cl)c7)C6(C)C)cn5)CC4)C3)cc1)=N[C@@H](Cc1ncco1)c1nnc(C)n1-2 [Compound I-542] the GI50 was greater than 3 µM. With Cc1sc2c(c1C)C(c1ccc(CC3CC4(CCN(c5ccc(C(=O)N[C@H]6C(C)(C)[C@H](Oc7ccc(C#N)c(Cl)c7)C6(C)C)nc5)CC4)C3)cc1)=NC1(CC1)c1nnc(C)n1-2 [Compound I-522] the GI50 was 1.5 to 3 µM. For Cc1sc2c(c1C)C(c1ccc(N3CC(CC4CN(c5ccc(C(=O)N[C@H]6C(C)(C)[C@H](Oc7ccc(C#N)c(Cl)c7)C6(C)C)nc5)C4)C3)cc1)=NC1(CC1)c1nnc(C)n1-2 [Compound I-531], the GI50 was greater than 3 µM. Cc1sc2c(c1C)C(c1ccc(CC3CC4(CCN(c5ccc(C(=O)N[C@H]6C(C)(C)[C@H](Oc7ccc(C#N)c(Cl)c7)C6(C)C)cn5)CC4)C3)cc1)=NC1(CC1)c1nnc(C)n1-2 [Compound I-507] showed a GI50 of less than 0.5 µM. Cc1sc2c(c1C)C(c1ccc(OC3CC4(C3)CC3(CCN(c5ccc(C(=O)N[C@H]6C(C)(C)[C@H](Oc7ccc(C#N)c(Cl)c7)C6(C)C)nc5)CC3)C4)cc1)=N[C@@H](Cc1ncco1)c1nnc(C)n1-2 [Compound I-546] showed a GI50 greater than 3 µM. For Cc1sc2c(c1C)C(c1ccc(N3CC(CC4CCN(c5ncc(C(=O)N[C@H]6C(C)(C)[C@H](Oc7ccc(C#N)c(Cl)c7)C6(C)C)cn5)CC4)C3)cc1)=N[C@@H](Cc1ncco1)c1nnc(C)n1-2 [Compound I-574], the GI50 was less than 0.5 µM. Cc1sc2c(c1C)C(c1ccc(CC3CC4(CCN(c5ccc(C(=O)N[C@H]6C(C)(C)[C@H](Oc7ccc(C#N)c(Cl)c7)C6(C)C)nc5)CC4)C3)cc1)=N[C@@H](Cc1ncco1)c1nnc(C)n1-2 [Compound I-553] gave a GI50 of less than 0.5 µM. In the case of Cc1sc2c(c1C)C(c1ccc(OCC3CC4(CCCN(c5ncc(C(=O)N[C@H]6C(C)(C)[C@H](Oc7ccc(C#N)c(Cl)c7)C6(C)C)cn5)C4)C3)cc1)=NC1(CC1)c1nnc(C)n1-2 [Compound I-499], the GI50 is reported as greater than 3 µM. Compound Cc1sc2c(c1C)C(c1ccc(N3CC(C4CCN(c5ccc(C(=O)N[C@H]6C(C)(C)[C@H](Oc7ccc(C#N)c(Cl)c7)C6(C)C)cn5)CC4)C3)cc1)=NC1(CC1)c1nnc(C)n1-2 [Compound I-534] has a GI50 greater than 3 µM. In the case of Cc1sc2c(c1C)C(c1ccc(CCOC3CCN(c4ncc(C(=O)N[C@H]5C(C)(C)[C@H](Oc6ccc(C#N)c(Cl)c6)C5(C)C)cn4)CC3)cc1)=N[C@@H](C)c1nnc(C)n1-2 [Compound I-501], the GI50 is reported as 0.5 to 1.5 µM. Cc1sc2c(c1C)C(c1ccc(OC3CC4(C3)CC3(CCN(c5ncc(C(=O)N(C)[C@H]6C(C)(C)[C@H](Oc7ccc(C#N)c(Cl)c7)C6(C)C)cn5)CC3)C4)cc1)=N[C@@H](Cc1ncco1)c1nnc(C)n1-2 [Compound I-592] showed a GI50 of less than 0.5 µM. In the case of Cc1sc2c(c1C)C(c1ccc(N3CC(CC4CCN(c5cnc(C(=O)N[C@H]6C(C)(C)[C@H](Oc7ccc(C#N)c(Cl)c7)C6(C)C)cn5)CC4)C3)cc1)=NC1(CC1)c1nnc(C)n1-2 [Compound I-526], the GI50 is reported as greater than 3 µM. Cc1sc2c(c1C)C(c1ccc(N3CC(CC4CCN(c5ccc(C(=O)N[C@H]6C(C)(C)[C@H](Oc7ccc(C#N)c(Cl)c7)C6(C)C)nc5)CC4)C3)cc1)=NC1(CC1)c1nnc(C)n1-2 [Compound I-529] showed a GI50 greater than 3 µM.
